Data on 22 compounds can be found in patent US10421761B2, “Compounds for kinase modulation, and indications therefor” (Plexxikon Inc., priority 2013, dated 2019).

Assay [1] relates to A375 (BRAF V600E) cell line. Briefly: A375 P-ERK inhibition assay (AlphaScreen). The note with it: Homo sapiens, A-375; A375_P-ERK. The assay is classed as cell-based, human. The method, boiled down: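 Phospho-ERK1/2 (Thr202/Tyr204) detected in lysates by AlphaScreen proximity signal, pairing a total-ERK antibody with a phospho-specific antibody. Before lysis, A375 cells received compound as an 8-point titration for one hour at 37° C.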
On the technique in general: In Alpha technology, singlet oxygen from a donor bead excites a nearby acceptor bead.

Another assay deals with T1, BRAF V600E (Homo sapiens, UniProt P15056, V600E).
T1 construct: purchased Upstate Biotechnology
T1 sequence (P15056 whole entry V600E): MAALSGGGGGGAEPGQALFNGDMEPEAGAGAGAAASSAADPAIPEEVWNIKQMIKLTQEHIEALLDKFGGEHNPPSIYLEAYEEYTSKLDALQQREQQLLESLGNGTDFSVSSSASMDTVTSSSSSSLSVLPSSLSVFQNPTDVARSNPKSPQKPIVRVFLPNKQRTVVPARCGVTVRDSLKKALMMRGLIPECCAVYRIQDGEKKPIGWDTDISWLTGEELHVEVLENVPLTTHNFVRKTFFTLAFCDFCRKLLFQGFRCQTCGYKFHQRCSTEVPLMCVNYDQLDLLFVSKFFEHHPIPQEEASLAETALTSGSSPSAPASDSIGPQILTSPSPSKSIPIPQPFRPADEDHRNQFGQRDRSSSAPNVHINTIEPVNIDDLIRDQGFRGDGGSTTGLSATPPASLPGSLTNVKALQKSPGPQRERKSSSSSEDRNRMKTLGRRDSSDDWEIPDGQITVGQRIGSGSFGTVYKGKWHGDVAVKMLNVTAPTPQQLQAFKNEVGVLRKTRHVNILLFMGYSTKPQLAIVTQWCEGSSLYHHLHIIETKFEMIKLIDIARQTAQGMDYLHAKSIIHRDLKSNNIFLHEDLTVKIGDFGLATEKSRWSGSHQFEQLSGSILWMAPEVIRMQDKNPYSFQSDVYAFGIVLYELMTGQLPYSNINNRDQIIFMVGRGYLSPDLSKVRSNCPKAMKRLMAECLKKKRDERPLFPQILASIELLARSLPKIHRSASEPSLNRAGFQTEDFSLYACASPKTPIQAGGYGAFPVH
In words: BRAF V600E biochemical kinase activity assay (AlphaScreen, biotin-MEK1 substrate). The following applies: BRAF V600E biochemical inhibitory activity.

Assay [2] concerns IPC-298 (NRAS Q61L) cell line. In words: IPC-298 P-ERK cell activation assay (AlphaScreen). The assay is classed as cell-based, human. The note with it: Homo sapiens, P-ERK cell activation, IPC-298, read-out: Cell activity (EC50 μM) IPC-298_P-ERK. The method, boiled down: (§1)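 Phospho-ERK1/2 (Thr202/Tyr204) in lysates quantified via AlphaScreen bead proximity, after one-hour, 37° C. exposure of cells to eight compound concentrations. Lines: IPC-298 human melanoma with activated NRAS; B9 mouse squamous carcinoma with activated HRAS.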

A further assay deals with B9 (HRAS Q61L) cell line. Briefly: B9 P-ERK cell activation assay (AlphaScreen). Type of assay: cell-based, mouse. The note with it: Mus musculus, P-ERK cell activation, B9, read-out: Cell activity (EC50 μM) B9_pERK. The method, boiled down:
as §1

Like-named read-outs stand apart in the source and are kept apart here.

A word on the IC50: it is the concentration at which inhibition is half-maximal. Low readings indicate greater potency in that assay, high ones weaker potency in that assay. The EC50 is the concentration needed to bring the measured effect to its halfway point.

As for `CCCNc1ncnc2[nH]cc(C(=O)c3cccc(NS(=O)(=O)N(C)CC)c3F)c12` [P-2066, 5-[3-[[ethyl(methyl)sulfamoyl]amino]-2-fluoro-benzoyl]-4-(propylamino)-7H-pyrrolo[2,3-d]pyrimidine], the IC50 (in assay [1]; at BRAF V600E) was 0.0001 to 1 µM in each case. In addition, the EC50 (in assay [2] (numeric bounds); with B9 (HRAS Q61L) cell line (numeric bounds)) was greater than 10 µM in each case.

With `COc1ccnc2[nH]cc(C(=O)c3c(F)ccc(NS(=O)(=O)N4CCOCC4)c3F)c12` [P-2023, N-[2,4-difluoro-3-(4-methoxy-1H-pyrrolo[2,3-b]pyridine-3-carbonyl)phenyl]morpholine-4-sulfonamide], the IC50 was 1 to 10 µM in assay [1] and 0.0001 to 1 µM on BRAF V600E. Besides, the EC50 (in assay [2] (numeric bounds); in the assay with B9 (HRAS Q61L) cell line (numeric bounds)) was greater than 10 µM throughout.

As for `CC(C)(C)c1nc(-c2cccc(NS(=O)(=O)N3CC[C@H](F)C3)c2F)c(-c2ccnc(N)n2)s1` [P-2130, (3S)-N-[3-[5-(2-aminopyrimidin-4-yl)-2-tert-butyl-thiazol-4-yl]-2-fluoro-phenyl]-3-fluoro-pyrrolidine-1-sulfonamide], the IC50 (in assay [1]; against BRAF V600E) was 0.0001 to 1 µM in each case. For the same compound, the EC50 (in assay [2] (class symbols); with B9 (HRAS Q61L) cell line (class symbols)) was 0.0001 to 1 µM throughout.

On to `CCN(C)S(=O)(=O)Nc1cccc(C(=O)c2c[nH]c3ncnc(N[C@@H](C)C4CC4)c23)c1F` [P-2080, 4-[[(1S)-1-cyclopropylethyl]amino]-5-[3-[[ethyl(methyl)sulfamoyl]amino]-2-fluoro-benzoyl]-7H-pyrrolo[2,3-d]pyrimidine], for which the IC50 (in assay [1]; on BRAF V600E) was 0.0001 to 1 µM throughout. For the same compound, the EC50 (in assay [2] (numeric bounds); in the assay on B9 (HRAS Q61L) cell line (numeric bounds)) was greater than 10 µM in each case.

Consider `CC(C)Nc1ncnc2[nH]cc(C(=O)c3c(F)ccc(NS(=O)(=O)C4CCCC4)c3F)c12` [P-2040, N-[2,4-difluoro-3-[4-(isopropylamino)-7H-pyrrolo[2,3-d]pyrimidine-5-carbonyl]phenyl]cyclopentanesulfonamide], for which the IC50 (in assay [1]; at BRAF V600E) was 0.0001 to 1 µM throughout. Further, the concentration giving a half-maximal response (EC50) (in assay [2] (numeric bounds); with B9 (HRAS Q61L) cell line (numeric bounds)) was greater than 10 µM in each case.

`CCN(C)S(=O)(=O)Nc1cccc(C(=O)c2c[nH]c3ncnc(OC)c23)c1F` [P-2092, 5-[3-[[ethyl(methyl)sulfamoyl]amino]-2-fluoro-benzoyl]-4-methoxy-7H-pyrrolo[2,3-d]pyrimidine]: the IC50 (in assay [1]; on BRAF V600E) was 0.0001 to 1 µM throughout. The EC50 (in assay [2] (numeric bounds); in the assay with B9 (HRAS Q61L) cell line (numeric bounds)) was greater than 10 µM throughout.

On to `CCN(C)S(=O)(=O)Nc1cccc(C(=O)c2c[nH]c3ncnc(C)c23)c1F` [P-2090, 5-[3-[[ethyl(methyl)sulfamoyl]amino]-2-fluoro-benzoyl]-4-methyl-7H-pyrrolo[2,3-d]pyrimidine], for which the IC50 (in assay [1]; against BRAF V600E) was 0.0001 to 1 µM throughout. Moreover, the EC50 (in assay [2] (numeric bounds); with B9 (HRAS Q61L) cell line (numeric bounds)) was greater than 10 µM each time.

Regarding `O=C(c1c(F)ccc(NS(=O)(=O)C2CCCCC2)c1F)c1c[nH]c2ncnc(NCC3CC3)c12` [P-2049, N-[3-[4-(cyclopropylmethylamino)-7H-pyrrolo[2,3-d]pyrimidine-5-carbonyl]-2,4-difluoro-phenyl]cyclohexanesulfonamide], the IC50 (in assay [1]; against BRAF V600E) was 0.0001 to 1 µM each time. Also, the EC50 (in assay [2] (numeric bounds); with B9 (HRAS Q61L) cell line (numeric bounds)) was greater than 10 µM each time.

For `O=C(O)CNc1ncnc2[nH]cc(C(=O)c3cccc(NS(=O)(=O)N4CCCC4)c3F)c12` [P-2109, 2-[[5-[2-fluoro-3-(pyrrolidin-1-ylsulfonylamino)benzoyl]-7H-pyrrolo[2,3-d]pyrimidin-4-yl]amino]acetic acid], the figures for the half-inhibitory concentration (IC50) (in assay [1]; on BRAF V600E) were 1 to 10 µM and 0.0001 to 1 µM, respectively. For the same compound, the EC50 (in assay [2] (numeric bounds); in the assay on B9 (HRAS Q61L) cell line (numeric bounds)) was greater than 10 µM in each case.

For `CCN(CC)S(=O)(=O)Nc1ccc(F)c(C(=O)c2c[nH]c3nccc(Cl)c23)c1F` [Compound P-2011, 4-chloro-3-[3-(diethylsulfamoylamino)-2,6-difluoro-benzoyl]-1H-pyrrolo[2,3-b]pyridine], the IC50 in assay [1] is 1 to 10 µM; at BRAF V600E, 0.0001 to 1 µM. The EC50 (in assay [2] (numeric bounds); in the assay on B9 (HRAS Q61L) cell line (numeric bounds)) was greater than 10 µM in each case.

Consider `COCCNc1ncnc2[nH]cc(C(=O)c3cccc(NS(=O)(=O)N4CCCC4)c3F)c12` [P-2104, N-[2-fluoro-3-[4-(2-methoxyethylamino)-7H-pyrrolo[2,3-d]pyrimidine-5-carbonyl]phenyl]pyrrolidine-1-sulfonamide], for which the IC50 (in assay [1]; at BRAF V600E) was 0.0001 to 1 µM throughout. Further, the EC50 (in assay [2] (numeric bounds); in the assay with B9 (HRAS Q61L) cell line (numeric bounds)) was greater than 10 µM each time.

As to `CC(=O)Nc1ccc(NC(=O)c2c(F)ccc(NS(=O)(=O)N3CCCC3)c2F)cn1` [P-2036, N-(6-acetamido-3-pyridyl)-2,6-difluoro-3-(pyrrolidin-1-ylsulfonylamino)benzamide], the concentration for half-maximal inhibition (IC50) (in assay [1]; on BRAF V600E) was 1 to 10 µM in each case. The EC50 (in assay [2] (numeric bounds); in the assay on B9 (HRAS Q61L) cell line (numeric bounds)) was greater than 10 µM throughout.

For the compound `CCCC(C)S(=O)(=O)Nc1ccc(F)c(C(=O)c2c[nH]c3nccc(OC)c23)c1F` (stereo not shown) [Compound P-2009, N-[2,4-difluoro-3-(4-methoxy-1H-pyrrolo[2,3-b]pyridine-3-carbonyl)phenyl]pentane-2-sulfonamide], the figures for the IC50 (in assay [1]; against BRAF V600E) were 1 to 10 µM and 0.0001 to 1 µM, respectively. Further, the EC50 (in assay [2] (numeric bounds); with B9 (HRAS Q61L) cell line (numeric bounds)) was greater than 10 µM each time.

As to `O=C(c1cccc(NS(=O)(=O)N2CCCC2)c1F)c1c[nH]c2ncnc(NC3CC3)c12` [P-2070, N-[3-[4-(cyclopropylamino)-7H-pyrrolo[2,3-d]pyrimidine-5-carbonyl]-2-fluoro-phenyl]pyrrolidine-1-sulfonamide], the IC50 (in assay [1]; against BRAF V600E) was 0.0001 to 1 µM in each case. Also, the EC50 (in assay [2] (numeric bounds); with B9 (HRAS Q61L) cell line (numeric bounds)) was greater than 10 µM throughout.

For the compound `CCN(C)S(=O)(=O)Nc1cccc(C(=O)c2c[nH]c3ncnc(NC4CCC4)c23)c1F` [P-2072, 4-(cyclobutylamino)-5-[3-[[ethyl(methyl)sulfamoyl]amino]-2-fluoro-benzoyl]-7H-pyrrolo[2,3-d]pyrimidine], the IC50 (in assay [1]; at BRAF V600E) was 0.0001 to 1 µM each time. In addition, the EC50 (in assay [2] (numeric bounds); in the assay with B9 (HRAS Q61L) cell line (numeric bounds)) was greater than 10 µM each time.

Take `CC(=O)Nc1ccc(NC(=O)c2c(F)ccc(NS(=O)(=O)N3CCCCC3)c2F)cn1` [P-2033, N-(6-acetamido-3-pyridyl)-2,6-difluoro-3-(1-piperidylsulfonylamino)benzamide]: the IC50 was greater than 10 µM in assay [1] and 0.0001 to 1 µM against BRAF V600E. In addition, the EC50 (in assay [2] (numeric bounds); in the assay with B9 (HRAS Q61L) cell line (numeric bounds)) was greater than 10 µM in each case.

For the compound `O=C(c1cc(Cl)cc(NS(=O)(=O)N2CC[C@@H](F)C2)c1F)c1c[nH]c2ncc(-c3cnc(C4CC4)nc3)cc12` [P-2174, (3R)—N-[5-chloro-3-[5-(2-cyclopropylpyrimidin-5-yl)-1H-pyrrolo[2,3-b]pyridine-3-carbonyl]-2-fluoro-phenyl]-3-fluoro-pyrrolidine-1-sulfonamide], the IC50 (in assay [1]; against BRAF V600E) was 0.0001 to 1 µM throughout. Besides, the EC50 (in assay [2] (numeric bounds); in the assay with B9 (HRAS Q61L) cell line (numeric bounds)) was greater than 10 µM throughout.

Turning to `CN(C)S(=O)(=O)Nc1ccc(F)c(C(=O)c2c[nH]c3nccc(Cl)c23)c1F` [Compound P-2007, 4-chloro-3-[3-(dimethylsulfamoylamino)-2,6-difluoro-benzoyl]-1H-pyrrolo[2,3-b]pyridine], the IC50 (in assay [1]; against BRAF V600E) was 0.0001 to 1 µM each time. Besides, the EC50 (in assay [2] (numeric bounds); with B9 (HRAS Q61L) cell line (numeric bounds)) was greater than 10 µM throughout.

As for `CN(C)CC(C)(C)CNc1ncnc2[nH]cc(C(=O)c3cccc(NS(=O)(=O)N4CCCC4)c3F)c12` [P-2113, N-[3-[4-[[3-(dimethylamino)-2,2-dimethyl-propyl]amino]-7H-pyrrolo[2,3-d]pyrimidine-5-carbonyl]-2-fluoro-phenyl]pyrrolidine-1-sulfonamide], the IC50 (in assay [1]; against BRAF V600E) was 0.0001 to 1 µM in each case. In addition, the EC50 (in assay [2] (numeric bounds); in the assay on B9 (HRAS Q61L) cell line (numeric bounds)) was greater than 10 µM in each case.

In the case of `COC(=O)N[C@@H](C)CNc1nccc(-c2sc(-c3ccccc3)nc2-c2cccc(NS(=O)(=O)N3CC[C@H](F)C3)c2F)n1` [P-2153, methyl N-[(1S)-2-[[4-[4-[2-fluoro-3-[[(3S)-3-fluoropyrrolidin-1-yl]sulfonylamino]phenyl]-2-phenyl-thiazol-5-yl]pyrimidin-2-yl]amino]-1-methyl-ethyl]carbamate], the IC50 (in assay [1]; at BRAF V600E) was 0.0001 to 1 µM throughout. Moreover, the EC50 (in assay [2] (class symbols); in the assay with B9 (HRAS Q61L) cell line (class symbols)) was 0.0001 to 1 µM each time.

As for `CC(C)Nc1ncnc2[nH]cc(C(=O)c3c(F)ccc(NS(=O)(=O)N4CCCCC4)c3F)c12` [P-2038, N-[2,4-difluoro-3-[4-(isopropylamino)-7H-pyrrolo[2,3-d]pyrimidine-5-carbonyl]phenyl]piperidine-1-sulfonamide], the IC50 (in assay [1]; against BRAF V600E) was 0.0001 to 1 µM throughout. For the same compound, the EC50 (in assay [2] (numeric bounds); in the assay on B9 (HRAS Q61L) cell line (numeric bounds)) was greater than 10 µM each time.

In the case of `CCC(C)S(=O)(=O)Nc1cccc(-c2nc(C(C)(C)C)sc2-c2ccnc(N)n2)c1F` (stereo not shown) [P-2106, N-[3-[5-(2-aminopyrimidin-4-yl)-2-tert-butyl-thiazol-4-yl]-2-fluoro-phenyl]butane-2-sulfonamide], the IC50 (in assay [1]; against BRAF V600E) was 0.0001 to 1 µM each time. Further, the EC50 (in assay [2] (numeric bounds); with B9 (HRAS Q61L) cell line (numeric bounds)) was greater than 10 µM each time.
